For series [1], the system named is Desulfovibrio longus. Kind of series: Biocidal efficacy at room temperature, sulfate reducing bacteria (SRB). The class given is cell-based. Conditions: for minimum dose needed to achieve 3-log reduction in bacteria levels: SRB, anaerobic PBS, doses 200 to 12 ppm glutaraldehyde equivalent, n/a = threshold not met at any tested dose; for activity against SRB (in words): compared with glutaraldehyde. Here is the method:
(§1) Glutaraldehyde and Compounds 1 and 2 are tested for biocidal activity against a pool of aerobic organisms at room temperature and against sulfate reducing bacteria (SRB) at room temperature. Tests are performed as follows:
(§2) a. Stock preparation. Glutaraldehyde (50% in water) and Compounds 1 and 2 are each dissolved in DMSO to a concentration of 200 mM, which is equivalent to 20,000 ppm of free glutaraldehyde.
b. Aerobic Bacteria—a mixed pool of 6 bacterial species at ˜5×10^6 CFU/mL in phosphate buffered saline is distributed into a 96-well plate. Each well receives an independent chemical treatment of glutaraldehyde or Compound 1 or 2 at concentrations ranging from 200 ppm to 12 ppm glutaraldehyde. A control treatment of DMSO alone is also included. Each condition is tested in triplicate. After set periods of incubation (1, 4, and 24 h), the number of surviving cells in each well are enumerated by dilution to extinction in a medium containing resazurin dye as an indicator. c. Sulfate Reducing Bacteria (SRB)—SRB testing is performed as for the aerobic bacteria with the following modifications: the species Desulfovibrio longus is tested in anaerobic PBS and the enumeration of surviving cells is performed in a medium containing soluble iron as an indicator. d. Results: Values indicate the minimum dose needed (in ppm) to achieve 3-log reduction in bacteria levels. “n/a” indicates the threshold was not met at any of the tested doses. “N.D” indicates data not available.

The test system of series [2] is Thermus thermophilus (ATCC 27634). Kind of series: Biocidal efficacy at elevated temperature. Format: cell-based. The settings on record: for log kill of treated bacterial populations relative to an untreated control: 50 ppm glutaraldehyde equivalent. Here is the method:
Compound 1 (208 mg) is dissolved in DMSO (5 mL) to yield a 200 mM solution such that the glutaraldehyde-equivalent concentration of the stock solution is 20,000 ppm. The bacterial strain Thermus thermophilus (ATCC 27634) is maintained at 70° C. After 24-48 hours of growth, 10 mL of bacterial culture are harvested by spinning in a Beckman-Coulter benchtop centrifuge at 3000 rpm for 15 min. The cell pellet is resuspended in 100 mL of phosphate-buffered saline (PBS) to give approximately 5×10^5 CFU/mL and aliquoted into 10 mL portions in glass test tubes fitted with screw caps. Samples are equilibrated to 37, 55, or 70° C. for 30 min and then treated with glutaraldehyde or Compound 1 at 50 ppm glutaraldehyde equivalent. The treated samples are returned to their respective equilibration temperatures for 4 h and then enumerated for surviving bacteria. After 24 h, the process is repeated by adding fresh grown bacteria to the samples to re-challenge the biocide. The samples are again enumerated after 4 h.
Results are reported in terms of log kill of treated bacterial populations relative to an untreated control at each temperature. For values listed as “>x,” actual kill may have been higher but could not be detected by this assay.

Series [3] concerns mixed pool of 6 bacterial species (aerobic organisms). In words: Biocidal efficacy at room temperature, aerobic bacteria. The class given is cell-based. Here is the method: as §1, §2
b. Aerobic Bacteria—a mixed pool of 6 bacterial species at ˜5×10^6 CFU/mL in phosphate buffered saline is distributed into a 96-well plate. Each well receives an independent chemical treatment of glutaraldehyde or Compound 1 or 2 at concentrations ranging from 200 ppm to 12 ppm glutaraldehyde. A control treatment of DMSO alone is also included. Each condition is tested in triplicate. After set periods of incubation (1, 4, and 24 h), the number of surviving cells in each well are enumerated by dilution to extinction in a medium containing resazurin dye as an indicator. c. Sulfate Reducing Bacteria (SRB)—SRB testing is performed as for the aerobic bacteria with the following modifications: the species Desulfovibrio longus is tested in anaerobic PBS and the enumeration of surviving cells is performed in a medium containing soluble iron as an indicator. d. Results: Values indicate the minimum dose needed (in ppm) to achieve 3-log reduction in bacteria levels. […]

Series [4] is described as follows: Stability of the compound on work-up, GC of dried sample. Format: physicochemical. Conditions: GC peak becomes smaller after drying of the crude material. How it is done:
A three neck 50 mL round bottom flask equipped with a stir bar, thermocouple, addition funnel capped with nitrogen inlet and condenser is charged with 2-amino-2-methylpropan-1-ol (95%, 7.8 g, 0.083 mols, 1.0 equivalents). The flask is cooled down to approximately 10° C. under ice/water bath. Once the temperature is reached, glutaraldehyde (50%, 16.7 g, 0.083 mols, 1.0 equivalents) is added drop wise over a period of 15-20 minutes. The reaction temperature is maintained by cooling the bath and by controlled addition of glutaraldehyde. After complete addition of glutaraldehyde, the transparent reaction mixture turns milky/opaque and a viscous sticky solid starts forming making stirring difficult. The reaction is stopped and the GC of the material is taken and a peak at 11.99 minutes is observed which corresponds to compound (4). The GC has some minor impurities in the high retention region. 20 mL of ethyl acetate is added to the reaction mixture and vigorously stirred under nitrogen. The entire content of the flask dissolve in ethyl acetate. The ethyl acetate layer is washed twice with 25 mL of water and the organic layer dried in magnesium sulfate.
A three neck 100 mL round bottom flask equipped with a stir bar, thermocouple, addition funnel capped with nitrogen inlet and condenser is charged with 3-aminobutan-2-ol (100%, 8.9 g, 0.1mols, 1.0 equivalent). […]

Where only a bound is given, the exact number is not on record here.

Consider `CCCCC1OC2CCC=CN2C1CC` (stereo not drawn) [Compound 1, 2-butyl-3-ethyl-3,7,8,8a-tetrahydro-2H-oxazolo[3,2-a]pyridine], for which the “minimum dose needed to achieve 3-log reduction in bacteria levels” value was found to be 200 ppm in series [1] (4 hours) and 26 ppm in series [1] (24 hours). In addition, the “activity against SRB (in words)” value in series [1] is on record as “some activity against SRB, but are not as effective as glutaraldehyde”. Also, the “log kill of treated bacterial populations relative to an untreated control” value is on record as greater than 3 log in series [2] (37° C., 4 hr); 2 log in series [2] (37° C., 24 hr re-challenge with fresh bacteria, enumerated after 4 h); greater than 3 log in series [2] (55° C., 4 hr); 1 log in series [2] (55° C., 24 hr re-challenge with fresh bacteria, enumerated after 4 h); greater than 4 log in series [2] (70° C., 4 hr); greater than 4 log in series [2] (70° C., 24 hr re-challenge with fresh bacteria, enumerated after 4 h). Also, the “activity compared with glutaraldehyde (in words)” value in series [2] (70° C.) was “equivalent activity to glutaraldehyde”; in series [2] (lower temperatures (37, 55° C.)) it was “less effective”. Also, the “biocidal activity against aerobic bacteria (in words)” value in series [3] is “do not show significant biocidal activity”.
With `CCCCC(CC)C1OC2CCC=CN2C1C` (stereo not drawn) [Compound 2, 2-(heptan-3-yl)-3-methyl-3,7,8,8a-tetrahydro-2H-oxazolo[3,2-a]pyridine], the entries for the “minimum dose needed to achieve 3-log reduction in bacteria levels” value in series [1] (1 hour) and in series [1] (4 hours) were 200 ppm and greater than 200 ppm, respectively. Further, the “activity against SRB (in words)” value in series [1] was “some activity against SRB, but are not as effective as glutaraldehyde”. Besides, the “biocidal activity against aerobic bacteria (in words)” value in series [3] is reported as “do not show significant biocidal activity”.
Take `CC1(C)COC2CCC=CN21` (stereo not drawn) [Compound 4, 3,3-dimethyl-3,7,8,8a-tetrahydro-2H-oxazolo[3,2-a]pyridine]: the “stability of the compound (in words)” value in series [4] is reported as “limited stability”.
On the same count and under the same terms, the entry for `CC1OC2CCC=CN2C1C` (stereo not drawn) [Compound 5, 2,3-dimethyl-3,7,8,8a-tetrahydro-2H-oxazolo[3,2-a]pyridine] is “limited stability”.

For the origin of these results see patent US9617278B2, “Antimicrobial compounds” (Dow Global Technologies LLC, priority 2012, dated 2017).
